Laboratory results published in patent US9663516B2, “Bicyclic-pyrimidinedione compounds” (MyoKardia, Inc., priority 2014, dated 2017).

Legend:
bovine cardiac myosin = bovine cardiac myosin (Bos taurus, UniProt Q9BE39); experiment: Myosin inhibition assay (PK/LDH-coupled ATPase, bovine cardiac myofibrils); type: biochemical; details: calcium concentration giving 50% activation, pH 6.8, read-out: bcMF pCa_6 IC50
Experimental: Small molecule agents were assessed for their ability to inhibit the enzymatic activity of bovine cardiac myosin using a biochemical assay that couples the release of ADP (adenosine diphosphate) from cardiac myosin to an enzymatic coupling system consisting of pyruvate kinase and lactate dehydrogenase (PK/LDH) and monitoring the absorbance decrease of NADH (at 340 nm) as a function of time. PK converts ADP to ATP (adenosine triphosphate) by converting PEP (phosphoenolpyruvate) to pyruvate. Pyruvate is then converted to lactate by LDH by converting NADH (nicotinamide adenine dinucleotide) to NAD (oxidized nicotinamide adenine dinucleotide). […] Prior to testing small molecule agents, the bovine myofibrils were assessed for their calcium responsiveness and the calcium concentration that achieves a 50% activation of the myofibril system was chosen as the final condition for assessing the inhibitory activity of the small molecule agents. All enzymatic activity was measured in a buffered solution containing 12 mM PIPES (piperazine-N,N′-bis(2-ethanesulfonic acid), 2 mM magnesium chloride at pH 6.8 (PM12 buffer). Final assay conditions were 1 mg/mL of bovine cardiac myofibrils, 0.4 mM PK/LDH, 50 uM ATP, 0.1 mg/mL BSA (bovine serum albumin), 10 ppm antifoam, 2 mM BME, 0.5 mM NADH, 1.5 mM PEP at the desired free calcium concentration required to achieve 50% activation of the myofibrils.
A dilution series of compound was created in DMSO such that the final desired concentration of compound would be achieved in a volume of 30 μL with a fixed DMSO concentration of 3.3% (v/v). Typically 1 μL of the dilution series were added to 384 well plate to achieve an 10 point dose response. Following the addition of 14 μL of a solution containing bovine cardiac myofibrils, PK/LDH and a solution of calcium (that achieved 50% activation), the enzymatic reaction was started with the addition of 15 μL of a solution containing ATP, PEP and NADH. The reaction progress was followed in a PerkinElmer Envision plate reader at ambient temperature using clear bottom plates. The plate reader was configured to read absorbance at 340 nm in kinetics mode for 15 minutes. Data were recorded as the slope of the absorbance response to time. The slopes of the absorbance response as a function of time were normalized to slopes on the plate containing DMSO. This normalized rate was then plotted as a function of small molecule concentration and the data was fitted to a four-parameter fit using EXCEL XLfit. The IC50 is the concentration at which fifty percent of the total response is inhibited.

[1] = test system: adult rat ventricular myocytes; experiment: Cardiomyocyte contractility assay (fractional shortening, IonOptix edge detection); type: cell-based; details: 1 Hz pacing; for inhibition at 0.3 µM / inhibition at 1 µM / inhibition at 0.1 µM: Ventricular myocyte; for inhibition at 1 µM: 1.0 μM compound; for inhibition at 0.1 µM: 0.1 μM compound
Experimental: Contractility of adult rat ventricular myocytes is determined by edge detection with an IonOptix contractility system. Aliquots of myocytes in Tyrode buffer (137 mM NaCl, 3.7 mM KCL, 0.5 mM MgCl2, 1.5 mM CaCl2, 4 mM HEPES, 11 mM glucose) are placed in a perfusion chamber (Series 20 RC-27NE; Warner Instruments), allowed to adhere to the coverslip, and then perfused with 37° C. Tyrode buffer. Myocytes are filed stimulated at 1 Hz and 10V. Only myocytes with clear striations, quiescent prior to pacing, with a cell length of 120-180 microns, a basal fractional shortening equal to 3-8% of the cell length, and a contraction velocity greater than 100 microns per second are used for contractility experiments. To determine the response to compounds, myocytes are first perfused for 60 seconds with Tyrodes buffer followed by 5 minutes of compound and a 140 second washout with Tyrodes buffer. Data is continuously recorded using IonOptix software. Contractility data is analyzed using Ionwizard software (IonOptix). For each cell, 10-20 contractility transients were averaged and compared under basal (no compound) and compound-treated conditions. Compound activity is measured by effects on fractional shortening (FS), where fractional shortening is the ratio of the peak length of the cell at contraction divided by the basal cell length normalized to 100% for an untreated cell.

Sequence of bovine cardiac myosin (Q9BE39 whole entry): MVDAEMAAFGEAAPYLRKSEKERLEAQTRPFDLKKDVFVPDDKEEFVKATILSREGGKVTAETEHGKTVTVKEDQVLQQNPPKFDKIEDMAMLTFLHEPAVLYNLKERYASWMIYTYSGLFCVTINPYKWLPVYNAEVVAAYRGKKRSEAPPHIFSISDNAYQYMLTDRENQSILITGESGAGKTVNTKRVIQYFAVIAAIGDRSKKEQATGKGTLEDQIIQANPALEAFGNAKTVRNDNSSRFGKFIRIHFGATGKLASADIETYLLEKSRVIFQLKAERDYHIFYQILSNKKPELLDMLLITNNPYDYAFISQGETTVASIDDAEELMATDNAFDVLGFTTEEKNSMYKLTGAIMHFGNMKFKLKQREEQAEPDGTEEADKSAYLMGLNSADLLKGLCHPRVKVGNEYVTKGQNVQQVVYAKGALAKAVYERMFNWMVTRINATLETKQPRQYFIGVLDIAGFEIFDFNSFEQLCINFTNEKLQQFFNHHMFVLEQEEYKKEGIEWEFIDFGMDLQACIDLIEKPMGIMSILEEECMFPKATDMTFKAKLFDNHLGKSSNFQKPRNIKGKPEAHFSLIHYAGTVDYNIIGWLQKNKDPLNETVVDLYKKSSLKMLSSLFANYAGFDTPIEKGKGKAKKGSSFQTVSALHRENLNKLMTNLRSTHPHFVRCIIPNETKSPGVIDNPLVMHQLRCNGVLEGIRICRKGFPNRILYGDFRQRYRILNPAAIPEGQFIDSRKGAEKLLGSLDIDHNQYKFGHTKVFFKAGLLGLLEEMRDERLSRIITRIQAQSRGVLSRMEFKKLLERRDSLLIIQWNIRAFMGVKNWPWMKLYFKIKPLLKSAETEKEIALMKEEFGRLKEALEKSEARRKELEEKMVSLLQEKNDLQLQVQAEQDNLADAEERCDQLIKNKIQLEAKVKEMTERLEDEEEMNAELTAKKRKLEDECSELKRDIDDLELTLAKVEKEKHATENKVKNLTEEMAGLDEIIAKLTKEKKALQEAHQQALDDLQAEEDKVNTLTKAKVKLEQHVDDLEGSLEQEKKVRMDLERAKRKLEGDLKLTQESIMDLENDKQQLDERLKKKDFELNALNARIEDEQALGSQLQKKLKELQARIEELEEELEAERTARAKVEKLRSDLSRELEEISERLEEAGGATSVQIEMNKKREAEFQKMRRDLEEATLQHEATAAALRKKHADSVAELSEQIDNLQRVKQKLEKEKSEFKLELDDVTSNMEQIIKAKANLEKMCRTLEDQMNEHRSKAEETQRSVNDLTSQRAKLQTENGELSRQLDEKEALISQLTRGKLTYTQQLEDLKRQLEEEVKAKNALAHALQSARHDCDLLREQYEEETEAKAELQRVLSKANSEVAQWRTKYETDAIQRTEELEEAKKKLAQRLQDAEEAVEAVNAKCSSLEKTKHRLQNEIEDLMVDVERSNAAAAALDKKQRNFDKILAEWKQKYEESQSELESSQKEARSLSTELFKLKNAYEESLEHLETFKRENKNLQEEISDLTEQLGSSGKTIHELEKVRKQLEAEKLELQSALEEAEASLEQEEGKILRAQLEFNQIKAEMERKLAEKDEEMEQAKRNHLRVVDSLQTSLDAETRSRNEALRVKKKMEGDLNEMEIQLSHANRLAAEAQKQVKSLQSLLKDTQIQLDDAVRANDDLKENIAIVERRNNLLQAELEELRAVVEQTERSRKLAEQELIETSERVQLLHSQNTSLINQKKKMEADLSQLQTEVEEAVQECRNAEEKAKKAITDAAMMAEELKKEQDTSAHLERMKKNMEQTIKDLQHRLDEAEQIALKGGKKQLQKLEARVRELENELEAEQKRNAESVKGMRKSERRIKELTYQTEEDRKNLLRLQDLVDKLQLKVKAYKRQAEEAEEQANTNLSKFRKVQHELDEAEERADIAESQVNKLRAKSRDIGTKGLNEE
Sequence of bovine cardiac myosin (P85100 whole entry partner): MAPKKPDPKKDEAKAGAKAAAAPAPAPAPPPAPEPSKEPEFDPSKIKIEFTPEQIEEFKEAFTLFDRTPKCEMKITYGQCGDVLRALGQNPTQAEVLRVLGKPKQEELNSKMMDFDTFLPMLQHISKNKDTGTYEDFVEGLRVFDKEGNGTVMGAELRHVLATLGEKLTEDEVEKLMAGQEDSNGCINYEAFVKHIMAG
Sequence of bovine cardiac myosin (Q3SZE5 whole entry partner): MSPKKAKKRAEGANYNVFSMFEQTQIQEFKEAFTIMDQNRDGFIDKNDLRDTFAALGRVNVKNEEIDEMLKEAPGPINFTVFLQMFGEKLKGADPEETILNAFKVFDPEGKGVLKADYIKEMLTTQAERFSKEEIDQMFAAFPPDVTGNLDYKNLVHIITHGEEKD

Molecule	IC50 (bovine cardiac myosin) [nM]	inhibition at 0.3 µM ([1]; 0.3 μM compound) [%]	inhibition at 1 µM [1] [%]	inhibition at 0.1 µM [1] [%]	Activity at 0.3 μM (fractional shortening inhibition) ([1]; 0.3 μM compound)
O=c1[nH]c2c(c(=O)n1-c1cc(F)cc(F)c1)CC[C@H](C1CCC(F)(F)CC1)N2 [Compound 2, (R)-7-(4,4-Difluorocyclohexyl)-3-(3,5-difluorophenyl)-5,6,7,8-tetrahydropyrido[2,3-d]pyrimidine-2,4(1H,3H)-dione]	< 1000	< 33	> 66	–	–
CC(C)n1c(=O)[nH]c2c(c1=O)CC[C@H](C1CCC(F)(F)CC1)N2 [Compound 46]	< 1000	–	> 66	–	–
CC(C)n1c(=O)[nH]c2c(c1=O)CC(F)(F)[C@H](c1ccccc1)N2 [Compound 116, (S)-6,6-Difluoro-3-isopropyl-7-phenyl-5,6,7,8-tetrahydropyrido[2,3-d]pyrimidine-2,4(1H,3H)-dione]	1000 to 15000	33 to 66	> 66	–	–
CC(C)n1c(=O)[nH]c2c(c1=O)CC[C@H](c1cccc(F)c1)N2 [Compound 68, (R)-7-(3-Fluorophenyl)-3-isopropyl-5,6,7,8-tetrahydropyrido[2,3-d]pyrimidine-2,4(1H,3/H)-dione]	1000 to 15000	–	–	> 66	–
CCn1c(=O)[nH]c2c(c1=O)CC[C@H](c1ccc(F)c(F)c1)N2 [Compound 9, (R)-7-(3,4-Difluorophenyl)-3-ethyl-5,6,7,8-tetrahydropyrido[2,3-d]pyrimidine-2,4(1H,3H)-dione]	1000 to 15000	–	33 to 66	–	–
O=c1[nH]c2c(c(=O)n1CC(F)F)CC[C@H](c1ccc(F)c(F)c1)N2 [Compound 22]	1000 to 15000	–	33 to 66	–	–
CC(C)n1c(=O)[nH]c2c(c1=O)CC[C@H](c1ccccc1F)N2 [Compound 69, (R)-7-(2-Fluorophenyl)-3-isopropyl-5,6,7,8-tetrahydropyrido[2,3-d]pyrimidine-2,4(1H,3H)-dione]	1000 to 15000	–	–	> 66	–
CCn1c(=O)[nH]c2c(c1=O)CC[C@H](c1ccc(F)cc1)N2 [Compound 20]	1000 to 15000	–	33 to 66	–	–
CCn1c(=O)[nH]c2c(c1=O)CC[C@H](C1CCC(F)(F)CC1)N2 [Compound 53]	1000 to 15000	–	33 to 66	–	–
CCn1c(=O)[nH]c2c(c1=O)CC[C@H](c1ccccc1F)N2 [Compound 14]	1000 to 15000	< 33	> 66	–	–
CC(C)n1c(=O)[nH]c2c(c1=O)CC[C@](C)(c1ccccc1)N2 [Compound 106]	< 1000	–	–	> 66	–
(R)-3-Isopropyl-7-phenyl-7,8-dihydropyrido[2,3-d]pyrimidine-2,4,5(1H,3H,6H)-trione [Compound 1]	1000 to 15000	–	–	–	++ (++ represents fractional shorting inhibition values from 33% to 66%)
O=c1[nH]c2c(c(=O)n1C1CCC1)CC[C@H](C1CCC(F)(F)CC1)N2 [Compound 31]	< 1000	33 to 66	–	–	–
CC[C@H](C)n1c(=O)[nH]c2c(c1=O)CC[C@H](c1ccc(F)c(F)c1)N2 [Compound 18]	1000 to 15000	33 to 66	–	–	–
O=c1[nH]c2c(c(=O)n1CC(F)(F)F)CC[C@H](c1ccc(F)c(F)c1)N2 [Compound 70]	1000 to 15000	–	33 to 66	–	–
CC[C@@H](C)n1c(=O)[nH]c2c(c1=O)CC[C@H](c1ccc(F)c(F)c1)N2 [Compound 83]	< 1000	33 to 66	–	–	–
O=c1[nH]c2c(c(=O)n1-c1ccccc1)CC[C@H](c1ccc(F)c(F)c1)N2 [Compound 48]	1000 to 15000	< 33	< 33	–	–
CC(C)n1c(=O)[nH]c2c(c1=O)CC[C@H](c1ccc(F)cc1F)N2 [Compound 6, (R)-7-(2,4-Difluorophenyl)-3-isopropyl-5,6,7,8-tetrahydropyrido[2,3-d]pyrimidine-2,4(1H,3H)-dione]	< 1000	33 to 66	> 66	–	–
CC(C)n1c(=O)[nH]c2c(c1=O)CC[C@H](c1ccc(F)c(F)c1)N2 [Compound 4, (7R)-7-(3,4-difluorophenyl)-3-isopropyl-5,6,7,8-tetrahydropyrido[2,3-d]pyrimidine-2,4(1H,3H)-dione]	1000 to 15000	33 to 66	–	< 33	–
CC1(n2c(=O)[nH]c3c(c2=O)CC[C@H](c2ccc(F)c(F)c2)N3)CC1 [Compound 81]	1000 to 15000	–	33 to 66	–	–
CC(C)n1c(=O)[nH]c2c(c1=O)CC[C@H](c1ccc(F)cc1)N2 [Compound 67]	1000 to 15000	33 to 66	–	–	–
